Measurements reported in US20050164234A1, “Methods of using mammalian RNase H and compositions thereof” (priority 1997, published 2005).
Strand notation (5' to 3'): a small letter for the sugar, then the base; units joined by * are phosphorothioate-linked, units joined directly phosphodiester-linked; [ ] holds rarer units or linkages, { } end groups; capitals alone tell only the bases. e = 2'-O-(2-methoxyethyl) (MOE); [5mC] = 5-methylcytosine; d = 2'-deoxy (DNA)

Legend:
[1] = tested on: human RNase H1; assay: Screen of antisense compounds (gapped oligonucleotides, siRNA) in cells against human RNase H1; type: cell-based; parameters: concentration or dose not given beside the values; settings: percent inhibition of RNase H enzyme levels; target H1
Procedure: (§1) Oligonucleotides were identified by screening in cells (Crooke, S. T., 2003, in Burger's Medicinal Chemistry, 6th ed., pp 115-166; Vickers et al., 2003, J. Biol. Chem. 278, 7108-7118).
(§2) For this experiment oligoribonucleotides were purchased from Dharmacon Research, Inc. (Boulder Colo.). siRNA duplexes were formed in the solution containing 20 μM each oligoribonucleotide (sense strand shown and antisense strand complement—generally with a one base overhang at each end), 100 mM potassium acetate, 30 mM HEPES-KOH pH 7.4, 2 mM magnesium acetates. Reactions were heated for 1 minute at 90° C. and incubated for 1 hour at 37° C. The control gapped antisense oligonucleotide, is ISIS 29848, […] (SEQ ID NO: 104), where N is a mixture of A, G, C and T. Bold residues are 2′-MOE residues. The siRNA controls are either the single strand sense RNA strand or other RNA duplexes that are not complementary to the target. For transfection of cells, cells were incubated with a mixture of 3 μg/ml lipofectin (Invitrogen, Carlsbad Calif.) per 1-200 nM oligonucleotide or siRNA in OptiMEM medium (Invitrogen). After 4 hours the transfection mixture was aspirated from the cells and replaced with fresh medium containing 10% fetal bovine serum and the cells were incubated at 37° C. in 5% CO2 until harvest or second transfection.

[2] = tested on: human RNase H2; assay: Screen of antisense compounds (gapped oligonucleotides, siRNA) in cells against human RNase H2; type: cell-based; parameters: concentration or dose not given beside the values; settings: percent inhibition of RNase H enzyme levels; target H2
Procedure: as §1, §2

[3] = tested on: human RNase H2; assay: Antisense inhibition of human RNase H2 expression, Northern blot; type: cell-based; parameters: % of control / % inhibition: concentration or dose not given beside the values; settings: for % inhibition / % of control: RNase H2 expression, Northern blot; for reduction of expression: dose response, A549 cells; for inhibition of human RNase H2 expression: summary of Table 3
Procedure: Total RNA was isolated from different human cell lines (ATCC, Rockville, Md.) using the guanidine isothiocyanate method (21). Ten μg of total RNA was separated on a 1.2% agarose/formaldehyde gel and transferred to Hybond-N+ (Amersham, Arlington Heights, Ill.) followed by fixing using UV crosslinker (Strategene, La Jolla, Calif.). The premade multiple tissue Northern Blot membranes were also purchased from Clontech (Palo Alto, Calif.). To detect RNase H2 mRNA, hybridization was performed by using ^32P-labeled human RNase H II cDNA in Quik-Hyb buffer (Strategene, La Jolla, Calif.) at 68 EC for 2 hours. After hybridization, membranes were washed in a final stringency of 0.1×SSC/0.1% SDS at 60 EC for 30 minutes and subjected to auto-radiography.
A series of antisense oligonucleotides were targeted to the human RNase H2 polynucleotide sequence (SEQ ID NO: 11). These compounds were all 2′-O-methoxyethyl “gapmers” with an 8-nucleotide deoxy gap and a phosphorothioate backbone. Cytosine residues are 5-methyl cytosines. The 2′-O-methoxyethyl (2′MOE) nucleotides are shown in bold.
The oligonucleotides shown in Table 2 were tested by Northern blot analysis for their ability to inhibit expression of human RNase H2. Results are expressed in Table 3.

[4] = tested on: 17 nucleotide long RNA/DNA heteroduplex; assay: Initial cleavage rates of RNA/DNA heteroduplex by wild-type and mutant human RNase H1 proteins; type: biochemical; settings: 0.5 ng enzyme, 37° C., average of n≧3; detection limit = <1% of heteroduplex substrate cleaved over 60 min
Excerpt: The oligoribonucleotides were synthesized on a PE-ABI 380B synthesizer using 5′-O-silyl-2′-O-bis(2-acetoxyethoxy)methyl ribonucleoside phosphoramidites and procedures described elsewhere. Scaringe et al., 1998, J. Am. Chem. Soc. 120, 11820-11821/The oligoribonucleotides were purified by reverse-phase HPLC. The DNA oligonucleotides were synthesized on a PE-ABI 380B automated DNA synthesizer and standard phosphoramidite chemistry. The DNA oligonucleotides were purified by precipitation 2 times out of 0.5 M NaCl with 2.5 volumes of ethyl alcohol.
The RNA substrate is 5′-end-labeled with ^32P using 20 u of T4 polynucleotide kinase (Promega, Wis.), 120 pmol (7000 Ci/mmol) [γ-^32P]ATP (ICN, CA), 40 pmol RNA, 70 mM tris, pH 7.6, 10 mM MgCl2 and 50 mM DTT. The kinase reaction is incubated at 37° C. for 30 min. The labeled oligoribonucleotide was purified by electrophoresis on a 12% denaturing polyacrylamide gel. The specific activity of the labeled oligonucleotide is approximately 3000 to 8000 cpm/fmol.
The heteroduplex substrate was prepared in 100 μL containing 50 nM unlabeled oligoribonucleotide, 10^5 cpm of ^32P labeled oligoribonucleotide, 100 nM complementary oligodeoxynucleotide and hybridization buffer [20 mM tris, pH 7.5, 20 mM KCl]. Reactions were heated at 90° C. for 5 min, cooled to 37° C. and 60 u of Prime RNase Inhibitor (5 Prime→3 Prime, CO) and MgCl2 at a final concentration of 1 mM were added. Hybridization reactions were incubated 2-16 h at 37° C. and β-mercaptoethanol (BME) was added at final concentration of 20 mM.
The heteroduplex substrate was digested with 0.5 ng human RNase H1 at 37° C. A 10 μl aliquot of the cleavage reaction was removed at time points ranging from 2-120 min and quenched by adding 5 μL of stop solution (8 M urea and 120 mM EDTA). The aliquots were heated at 90° C. for two min, resolved in a 12% denaturing polyacrylamide gel and the substrate and product bands were quantitated on a Molecular Dynamics PhosphorImager. The concentration of the converted product was plotted as a function of time. The initial cleavage rate was obtained from the slope (mole RNA cleaved/min) of the best-fit line for the linear portion of the plot, which comprises, in general <10% of the total reaction and data from at least five time points.
The initial cleavage rates (V0) were determined for the human RNase H1 enzyme and the mutant proteins using a 17 nucleotide long RNA/DNA heteroduplex, (Table 5).
Initial cleavage rates were determined as described in above. The initial cleavage rates are an average of n≧3 measurements. *Detection limit=cleavage rates resulting in <1% of the heteroduplex substrate over 60 min.

Molecule: AAGCCGAGCGUGGAGCCGGCG [Si-H1B]
- % Inhib [1]: 77.2%

Molecule: CATCGCTCACTCCCGGCACC (chemistry not fully specified) [ISIS 18174, DNA-like gapped 2′-MOE oligonucleotide against human RNase H1, start codon]
- % Inhib [1]: 51.4%

Molecule: CCTACGTGTGGTTCTCCTTA (antisense e[5mC]*e[5mC]*eT*eA*e[5mC]*eG*dT*dG*dT*dG*dG*dT*dT*d[5mC]*eT*e[5mC]*e[5mC]*eT*eT*eA) [ISIS 21960, 2′-O-methoxyethyl gapmer, 8-nucleotide deoxy gap, phosphorothioate backbone, targeted to human RNase H2]
- % Inhib [2]: 91.7%
- % inhibition [3]: 92%
- % of control [3]: 8%
- reduction of expression ([3]; 200 nM): > 80%
- reduction of expression ([3]; lowest dose tested 50 nM): 60%
- inhibition of human RNase H2 expression [3]: at least 50%

Molecule: CCTCATCCTCTGTGGCAAAC (chemistry not fully specified) [ISIS 18177, DNA-like gapped 2′-MOE oligonucleotide against human RNase H1, coding]
- % Inhib [1]: 71.9%

Molecule: CCTCCGATTCTTGTCCATGT (chemistry not fully specified) [ISIS 18178, DNA-like gapped 2′-MOE oligonucleotide against human RNase H1, coding]
- % Inhib [1]: 64.6%

Molecule: CCTCTTTCTCCAGGATGGTC (antisense e[5mC]*e[5mC]*eT*e[5mC]*eT*eT*dT*d[5mC]*dT*d[5mC]*d[5mC]*dA*dG*dG*eA*eT*eG*eG*eT*e[5mC]) [ISIS 21958, 2′-O-methoxyethyl gapmer, 8-nucleotide deoxy gap, phosphorothioate backbone, targeted to human RNase H2]
- % Inhib [2]: 38.0%
- % inhibition [3]: 38%
- % of control [3]: 62%

Molecule: CGCCCAGGAAGTCTAATGCC (chemistry not fully specified) [ISIS 18180, DNA-like gapped 2′-MOE oligonucleotide against human RNase H1, coding]
- % Inhib [1]: 73.9%

Molecule: GCACACTCCCACCTTGCTTC (chemistry not fully specified) [ISIS 21961, 2′-O-methoxyethyl gapmer, 8-nucleotide deoxy gap, phosphorothioate backbone, targeted to human RNase H2]
- % Inhib [2]: 6.1%
- % inhibition [3]: 7%
- % of control [3]: 93%

Molecule: GCGCTTAACACCGCACTTCC (chemistry not fully specified) [ISIS 18173, DNA-like gapped 2′-MOE oligonucleotide against human RNase H1, 5′UTR]
- % Inhib [1]: 30.1%

Molecule: RNase H1[E186Q]: human RNase H1 mutant, glutamine substitution of glutamic acid at position 186
- V0 [4]: below detection limit

Molecule: TCTTCCAACCTTGAACCCAG (chemistry not fully specified) [ISIS 18182, DNA-like gapped 2′-MOE oligonucleotide against human RNase H1, coding]
- % Inhib [1]: 42.8%

Molecule: TGCAGGCTATTTTCCACACC (2'-MOE gapmer, further chemistry not given here) [ISIS 18186, DNA-like gapped 2′-MOE oligonucleotide against human RNase H1, 3′UTR]
- % Inhib [1]: 86.8%

Molecule: TGGCTCAAGTTCTCCCAAGG (chemistry not fully specified) [ISIS 18184, DNA-like gapped 2′-MOE oligonucleotide against human RNase H1, 3′UTR]
- % Inhib [1]: 78.9%

Molecule: TTTTGTCTTGGGATCATTGG (eT*eT*eT*eT*eG*eT*d[5mC]*dT*dT*dG*dG*dG*dA*dT*e[5mC]*eA*eT*eT*eG*eG) [ISIS 21956]
- % Inhib [2]: 63.1%
- % inhibition [3]: 63%
- % of control [3]: 37%
- inhibition of human RNase H2 expression [3]: at least 50%

B1: RNase H1[D210N]: human RNase H1 mutant, asparagine substitution of aspartic acid at position 210 (protein, UniProt O60930 1-286, looked up, variant D210N)
Ribonuclease H1: MSWLLFLAHRVALAALPCRRGSRGFGMFYAVRRGRKTGVFLTWNECRAQVDRFPAARFKKFATEDEAWAFVRKSASPEVSEGHENQHGQESEAKASKRLREPLDGDGHESAEPYAKHMKPSVEPAPPVSRDTFSYMGDFVVVYTDGCCSSNGRRRPRAGIGVYWGPGHPLNVGIRLPGRQTNQRAEIHAACKAIEQAKTQNINKLVLYTNSMFTINGITNWVQGWKKNGWKTSAGKEVINKEDFVALERLTQGMDIQWMHVPGHSGFIGNEEADRLAREGAKQSED
- V0 [4]: below detection limit

B2: RNase H1[K226, 227A]: human RNase H1 mutant, alanine substitution of lysine at positions 226 and 227 (protein, UniProt O60930 1-286, looked up, variant K226A K227A)
Ribonuclease H1: MSWLLFLAHRVALAALPCRRGSRGFGMFYAVRRGRKTGVFLTWNECRAQVDRFPAARFKKFATEDEAWAFVRKSASPEVSEGHENQHGQESEAKASKRLREPLDGDGHESAEPYAKHMKPSVEPAPPVSRDTFSYMGDFVVVYTDGCCSSNGRRRPRAGIGVYWGPGHPLNVGIRLPGRQTNQRAEIHAACKAIEQAKTQNINKLVLYTDSMFTINGITNWVQGWAANGWKTSAGKEVINKEDFVALERLTQGMDIQWMHVPGHSGFIGNEEADRLAREGAKQSED
- V0 [4]: 8.1 ± 0.2 pM/min
